According to patent US5622962A, “5α-reductase inhibitors” (priority 1995, dated 1997):
Like-named read-outs stand apart in the source and are kept apart here.

How the values were obtained:
[1] = molecular target: T1, Type I 5α-Reductase from Human Scalp (Homo sapiens, UniProt P18405); test: Human Type I 5α-reductase assay (conversion of [3H]-testosterone to 5α-reduced metabolites); format: biochemical
T1 construct: Scalp punch biopsies from graft recipient sites were obtained from human hair transplant procedures; from tissue; host or cells: human scalp punch biopsies (hair transplant graft recipient sites), homogenate, 100,000×g pellet
T1 sequence (P18405 1-259): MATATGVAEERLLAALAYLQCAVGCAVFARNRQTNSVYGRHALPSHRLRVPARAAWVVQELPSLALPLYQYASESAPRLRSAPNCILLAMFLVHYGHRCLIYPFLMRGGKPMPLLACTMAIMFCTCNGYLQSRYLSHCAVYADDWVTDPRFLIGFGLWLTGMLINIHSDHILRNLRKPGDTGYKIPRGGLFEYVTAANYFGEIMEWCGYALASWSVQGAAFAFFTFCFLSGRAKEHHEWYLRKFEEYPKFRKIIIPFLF

[2] = molecular target: T2, Type II 5α-Reductase from Human Prostate (Homo sapiens, UniProt P31213); test: Human Type II 5α-reductase assay (conversion of [3H]-testosterone to 5α-reduced metabolites); format: biochemical
T2 construct: The same procedure as above was used for preparations using tissue from prostate surgery; from tissue; host or cells: human prostate tissue from surgery, homogenate, 100,000×g pellet
T2 sequence (P31213 1-254): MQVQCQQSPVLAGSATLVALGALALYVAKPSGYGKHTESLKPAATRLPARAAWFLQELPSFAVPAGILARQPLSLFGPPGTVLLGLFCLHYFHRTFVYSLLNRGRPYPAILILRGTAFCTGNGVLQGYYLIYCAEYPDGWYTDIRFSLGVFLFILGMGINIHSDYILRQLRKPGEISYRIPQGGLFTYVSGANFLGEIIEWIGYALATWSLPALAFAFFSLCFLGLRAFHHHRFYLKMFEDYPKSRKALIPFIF

[3] = pH 7.5, 0.3 μM, 50 nM [3H]-testosterone, pH 7.5, 25°, 180 min, compared to control reaction mixtures, read-out: percent inhibition of Type I AR
[4] = pH 5.5, 0.3 μM, sodium acetate pH 5.5, 25°, 30 min, compared to control reaction mixtures, read-out: percent inhibition of Type II AR

Structure (SMILES) | inhibition at 0.3 µM ([1]; pH 7.5, read-out: percent inhibition of Type I AR) | inhibition at 0.3 µM ([2]; pH 5.5, read-out: percent inhibition of Type II AR) | inhibition at 0.3 µM [1, 3] | inhibition at 0.3 µM [2, 4]
CN1C(=O)CC[C@]2(C)c3ccc(-c4ccc(C(F)(F)F)cc4F)cc3CC[C@@H]12 [Example 210, (+)-(4aR)-(10bR)-4-methyl-8-(2-fluoro-4-trifluoromethylphenyl)-10b-methyl-1,2,3,4,4a,5,6,10b-octahydrobenzo[f]-quinolin-3-one] | 81% | 38% |  | 
CN1C(=O)CC[C@]2(C)c3ccc(-c4cc(C(F)(F)F)ccc4F)cc3CC[C@@H]12 [Example 211, (+)-(4aR)-(10bR)-4-methyl-8-(2-fluoro-5-trifluoromethylphenyl)-10b-methyl-1,2,3,4,4a,5,6,10b-octahydrobenzo[f]-quinolin-3-one quinolin-3-one] |  |  | 70% | 29%
CSc1cccc(-c2ccc3c(c2)CC[C@H]2N(C)C(=O)CC[C@]32C)c1 [Example 212, (+)-(4aR)-(10bR)-4-methyl-8-(3-methylthiophenyl)-10b-methyl-1,2,3,4,4a,5,6,10b-octahydrobenzo[f]quinolin-3-one] |  |  | 73% | 31%
CN1C(=O)CC[C@]2(C)c3ccc(-c4ccc(C(N)=O)cc4)cc3CC[C@@H]12 [Example 213, (+)-(4aR)-(10bR)-4-methyl-8-(4-carboxamidophenyl)-10b-methyl-1,2,3,4,4a,5,6,10b-octahydrobenzo[f]quinolin-3-one] |  |  | 64% | 28%
CCN(CC)C(=O)c1cc2cc(-c3ccc4c(c3)CC[C@H]3N(C)C(=O)CC[C@]43C)ccc2oc1=O [Example 214, (+)-(4aR)-(10bR)-4-methyl-8-[2-oxo-3-(N,N-diethylcarboxamido)-1-2H-benzopyran-6-yl)-10b-methyl-1,2,3,4,4a,5,6,10b-octahydrobenzo[f]quinolin-3-one] |  |  | 26% | 29%
CN1C(=O)CC[C@]2(C)c3ccc(-c4ccc(NC(=O)C(C)(C)C)nc4)cc3CC[C@@H]12 [Example 215, (+)-(4aR)-(10bR)-4-methyl-8-[2-(t-butylcarbonylamino)-5-pyridinyl]-10b-methyl-1,2,3,4,4a,5,6,10b-octahydrobenzo[f]-quinolin-3-one] |  |  | 84% | 42%
CN1C(=O)CC[C@]2(C)c3ccc(-c4cc(F)cc(C(F)(F)F)c4)cc3CC[C@@H]12 [Example 216, (+)-(4aR)-(10bR)-4-methyl-8-(3-fluoro-5-trifluoromethylphenyl)-10b-methyl-1,2,3,4,4a,5,6,10b-octahydrobenzo[f]-quinolin-3-one] |  |  | 78% | 24%
CN1C(=O)CC[C@]2(C)c3ccc(-c4ccc([N+](=O)[O-])s4)cc3CC[C@@H]12 [Example 217, (+)-(4aR)-(10bR)-4-methyl-8-(5-nitro-2-thienyl)-10b-methyl-1,2,3,4,4a,5,6,10b-octahydrobenzo[f]quinolin-3-one] |  |  | 93% | 33%
CN1C(=O)CC[C@]2(C)c3ccc(-c4ccc(Cl)s4)cc3CC[C@@H]12 [Example 218, (+)-(4aR)-(10bR)-4-methyl-8-(5-chloro-2-thienyl)-10b-methyl-1,2,3,4,4a,5,6,10b-octahydrobenzo[f]quinolin-3-one] |  |  | 84% | 35%
CN1C(=O)CC[C@]2(C)c3ccc(-c4ccc(Cl)c(F)c4)cc3CC[C@@H]12 [Example 219, (+)-(4aR)-(10bR)-4-methyl-8-(4-chloro-3-fluorophenyl)-10b-methyl-1,2,3,4,4a,5,6,10b-octahydrobenzo[f]quinolin-3-one] |  |  | 91% | 30%
CN1C(=O)CC[C@]2(C)c3ccc(-c4ccc(S(N)(=O)=O)cc4)cc3CC[C@@H]12 [Example 220, (+)-(4aR)-(10bR)-4-methyl-8-(4-sulfonamidophenyl)-10b-methyl-1,2,3,4,4a,5,6,10b-octahydrobenzo[f]quinolin-3-one] |  |  | 67% | 26%
CN1C(=O)CC[C@]2(C)c3ccc(-c4ccc(C(=O)CCCCl)cc4)cc3CC[C@@H]12 [Example 221, (+)-(4aR)-(10bR)-4-methyl-8-[4-(4-chlorobutyryl)phenyl]-10b-methyl-1,2,3,4,4a,5,6,10b-octahydrobenzo[f]quinolin-3-one] |  |  | 95% | 26%
CN1C(=O)CC[C@]2(C)c3ccc(-c4ccc5c(c4)C(=O)C(=O)N5)cc3CC[C@@H]12 [Example 223, (+)-(4aR)-(10bR)-4-methyl-8-(2,3-dioxo-5-indolinyl)-10b-methyl-1,2,3,4,4a,5,6,10b-octahydrobenzo[f]quinolin-3-one] |  |  | 36% | 24%
CN(C)CCN1C(=O)c2cccc3c(-c4ccc5c(c4)CC[C@H]4N(C)C(=O)CC[C@]54C)ccc(c23)C1=O [Example 224, (+)-(4aR)-(10bR)-4-methyl-8-(2-(2-dimethylaminoethyl)-1H-benzo<de>isoquinolin-6-yl-1,3-(2H)dione)-10b-methyl-1,2,3,4,4a,5,6,10b-octahydrobenzo[f]quinolin-3-one] |  |  | 71% | 20%
CCCN(CCC)[C@@H]1Cc2cc(-c3ccc4c(c3)CC[C@H]3N(C)C(=O)CC[C@]43C)cc3c2[C@@H](C1)CN3C(=O)c1ccccc1 [Example 225, (+)-(4aR)-(10bR)-4-methyl-8-(2aR,4S-1-benzoyl-4-dipropylamino-2,2a,3,4-tetrahydrobenz[cd]-1H-indol-7-yl)-10b-methyl-1,2,3,4,4a,5,6,10b-octahydrobenzo[f]quinolin-3-one] |  |  | 47% | 32%
CN1C(=O)CC[C@]2(C)c3ccc(-c4cc5c6c(c4)N(C(=O)c4ccccc4)C[C@@H]6C[C@H](N)C5)cc3CC[C@@H]12 [Example 226, (+)-(4aR)-(10bR)-4-methyl-8-(2aR,4S-1-benzoyl-4-amino-2,2a,3,4-tetrahydrobenz[cd]-1H-indol-7-yl)-10b-methyl-1,2,3,4,4a,5,6,10b-octahydrobenzo[f]quinolin-3-one] |  |  | 16% | 8%
CN1C(=O)CC[C@]2(C)c3ccc(-c4cc(F)cc(F)c4)cc3CC[C@@H]12 [Example 227, (+)-(4aR)-(10bR)-4-methyl-8-(3,5-difluorophenyl)-10b-methyl-1,2,3,4,4a,5,6,10b-octahydrobenzo[f]quinolin-3-one] |  |  | 97% | 25%
CN1C(=O)CC[C@]2(C)c3ccc(-c4c(F)cccc4F)cc3CC[C@@H]12 [Example 228, (+)-(4aR)-(10bR)-4-methyl-8-(2,6-difluorophenyl)-10b-methyl-1,2,3,4,4a,5,6,10b-octahydrobenzo[f]quinolin-3-one] |  |  | 77% | 32%
CN1C(=O)CC[C@]2(C)c3ccc(-c4cc(F)ccc4F)cc3CC[C@@H]12 [Example 229, (+)-(4aR)-(10bR)-4-methyl-8-(2,5-difluorophenyl)-10b-methyl-1,2,3,4,4a,5,6,10b-octahydrobenzo[f]quinolin-3-one] |  |  | 97% | 11%
CN1C(=O)CC[C@]2(C)c3ccc(-c4c(F)cc(F)cc4F)cc3CC[C@@H]12 [Example 230, (+)-(4aR)-(10bR)-4-methyl-8-(2,4,6-trifluorophenyl)-10b-methyl-1,2,3,4,4a,5,6,10b-octahydrobenzo[f]quinolin-3-one] |  |  | 86% | 29%
CN1C(=O)CC[C@]2(C)c3ccc(-c4ccc(F)cc4F)cc3CC[C@@H]12 [Example 231, (+)-(4aR)-(10bR)-4-methyl-8-(2,4-difluorophenyl)-10b-methyl-1,2,3,4,4a,5,6,10b-octahydrobenzo[f]quinolin-3-one] |  |  | 80% | 21%
CN1C(=O)CC[C@]2(C)c3ccc(-c4ccc(F)c(F)c4F)cc3CC[C@@H]12 [Example 232, (+)-(4aR)-(10bR)-4-methyl-8-(2,3,4-trifluorophenyl)-10b-methyl-1,2,3,4,4a,5,6,10b-octahydrobenzo[f]quinolin-3-one] |  |  | 94% | 27%
CN1C(=O)CC[C@]2(C)c3ccc(-c4ccc(SCc5ccc([N+](=O)[O-])cc5)cc4)cc3CC[C@@H]12 [Example 233, (+)-(4aR)-(10bR)-4-methyl-8-(4-[4-nitrobenzyl]thiophenyl)-10b-methyl-1,2,3,4,4a,5,6,10b-octahydrobenzo[f]quinolin-3-one] |  |  | 95% | 38%
CN1C(=O)CC[C@]2(C)c3ccc(-c4ccc5c6c(cccc46)C(=O)N(CCN4CCOCC4)C5=O)cc3CC[C@@H]12 [Example 234, (+)-(4aR)-(10bR)-4-methyl-8-(2-(2-[1-morpholino]ethyl)-1H-benzo<de>isoquinolin-6-yl-1,3-(2H)dione)-10b-methyl-1,2,3,4,4a,5,6,10b-octahydrobenzo[f]quinolin-3-one] |  |  | 83% | 30%
